Experimental data: patent publication US20260207578A1, “COMPOUND BASED ON SULFUR/OXYGEN SUBSTITUTED GLUTARIMIDE-BASED ISOINDOLINONE SKELETON AND USE THEREOF” (Gluetacs Therapeutics (Shanghai) Co., LTD., priority 2022, published 2026)

How the values were obtained:
GSPT1 = biological target: T1, GSPT1 (Homo sapiens, UniProt P15170+Q96SW2); assay: Western-blot assay, substrate protein in hPBMCs; assay type: cell-based; details: hPBMC cells, 24 hours, tested at 50 nM and 500 nM, table does not say which
T1 construct: endogenous in cells; host or cells: human PBMCs (Milecell Biotechnologies)
Procedure: (§1) The effect of the compounds of the present disclosure on the expression of target proteins in cells was detected using conventional Western blot analysis.
(§2) Human peripheral blood mononuclear cells (hPBMCs) at a density of 1×10^6 cells/mL were thawed according to the PBMC Recovery Protocol (Milecell Biotechnologies Inc, Shanghai).
(§3) After 24 hours of compounds treatment, cells were harvested and lysed in RIPA protein lysate containing phosphatase inhibitors on ice for 30-60 min, followed by centrifugation. The supernatant was aspirated as the extracted total cell protein. The protein concentration of the supernatant was determined using the conventional BCA (Bicinchoninic Acid) assay. The supernatant was then mixed with 4× SDS sample loading buffer, denatured at 95° C. for 5 minutes, and then subjected to SDS-PAGE electrophoresis on a polyacrylamide gel. Proteins were then transferred to a nitrocellulose (NC) membrane, blocked at room temperature for 1-2 h, and processed for antibody incubation and detection according to the manufacturer's instructions (Cell Signaling Technology).
(§4) Half-Maximal Degradation Concentration value (the drug concentration required for degrading proteins by 50%, abbreviated as DC50) reads method: comparing the grayscale values of Western blot bands from drug-treated samples with those from blank DMSO-treated controls, and identifying the drug concentration range at which the grayscale value is half that of the DMSO-treated control bands.
(§5) DC50 values can be calculated using ImageJ software to measure grayscale values of Western blot bands from drug-treated samples. The concentration-response curve is fitted to estimate the drug concentration corresponding to half the grayscale value.
(§6) Target protein remaining (%) refers to the percentage of target protein remaining in hPBMC cells after treatment with protein degrader compounds.
(§7) Calculation method for protein remaining (%): Use ImageJ software to measure grayscale values of Western blot bands from drug (protein degrader)-treated samples. The grayscale value of drug-treated bands is divided by that of internal control protein bands, and the resulting quotient is normalized to obtain the relative percentage of remaining target protein after protein degrader treatment.
(§8) Target protein degradation rate (%)=100%−target protein remaining (%).

Wee1 = biological target: T2, Wee1 (Homo sapiens, UniProt P30291+Q96SW2); assay: Western-blot assay, substrate protein in hPBMCs; assay type: cell-based; details: hPBMC cells, 24 hours, tested at 50 nM and 500 nM, table does not say which
T2 construct: endogenous in cells; host or cells: human PBMCs (Milecell Biotechnologies)
Procedure: as §1, §2, §3, §4, §5, §6, §7, §8

[1] = biological target: T3, human Cereblon WT GST-tagged protein (Homo sapiens, UniProt Q96SW2); assay: CRBN-binding affinity, HTRF (CEREBLON BINDING kit); details: displacement of Thalidomide-Re reagent, 3 hours at room temperature
T3 construct: purchased CISBIO 64BDCRBNPEH
Procedure: The CEREBLON BINDING kits (specification: 10,000 tests; product number: Catalog #64BDCRBNPEH; CISBIO company) was used to determine the CRBN binding ability of the compounds to be tested through a HTRF method (homogeneous time-resolved fluorescence). The specific methods are as follows: • 1. […] Then, 2.5 μL of human Cereblon WT GST-tagged protein solution was added to each well. Finally, 5 μL of the thoroughly mixed Thalidomide-Re reagent and GST Eu antibody working solution were added to each of the aforementioned wells. […] The blank control wells were sequentially added with 2.5 μL of diluent #9 (1×) solution, 2.5 μL of PROTAC binding buffer, and 5 μL of thoroughly mixed Thalidomide-Re reagent and GST Eu antibody working solution. • 4.
OD 620 nmcompound is the absorbance value of each well of the compounds to be tested of the present disclosure at an emission wavelength of 620 nm. […] OD 620 nmcontrol is the absorbance value of the blank control well at an emission wavelength of 620 nm. […] OD 620 nmStd0 is the absorbance value of the solvent control well at an emission wavelength of 620 nm.

CK1α = biological target: T4, CK1α (Homo sapiens, UniProt P48729+Q96SW2); assay: Western-blot assay, substrate protein in hPBMCs; assay type: cell-based; details: hPBMC cells, 24 hours, tested at 50 nM and 500 nM, table does not say which
T4 construct: endogenous in cells; host or cells: human PBMCs (Milecell Biotechnologies)
Procedure: as §1, §2, §3, §4, §5, §6, §7, §8

T2 sequence (P30291 whole entry): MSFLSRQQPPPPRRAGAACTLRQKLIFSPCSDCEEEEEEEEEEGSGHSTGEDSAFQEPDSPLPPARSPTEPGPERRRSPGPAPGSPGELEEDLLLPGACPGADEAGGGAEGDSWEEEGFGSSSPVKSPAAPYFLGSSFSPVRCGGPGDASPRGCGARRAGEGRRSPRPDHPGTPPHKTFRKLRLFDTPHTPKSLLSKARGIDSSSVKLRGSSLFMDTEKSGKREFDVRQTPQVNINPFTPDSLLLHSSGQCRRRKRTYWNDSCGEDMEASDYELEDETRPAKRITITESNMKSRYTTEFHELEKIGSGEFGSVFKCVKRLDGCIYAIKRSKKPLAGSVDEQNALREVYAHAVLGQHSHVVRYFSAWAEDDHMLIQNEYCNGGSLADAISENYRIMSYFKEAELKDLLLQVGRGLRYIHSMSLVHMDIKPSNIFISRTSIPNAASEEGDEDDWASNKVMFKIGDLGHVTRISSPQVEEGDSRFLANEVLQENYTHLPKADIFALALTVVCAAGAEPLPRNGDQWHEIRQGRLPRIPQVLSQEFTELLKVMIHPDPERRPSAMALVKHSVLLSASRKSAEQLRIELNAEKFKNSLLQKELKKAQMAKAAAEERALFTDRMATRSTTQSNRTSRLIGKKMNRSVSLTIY
T2 sequence (Q96SW2 whole entry): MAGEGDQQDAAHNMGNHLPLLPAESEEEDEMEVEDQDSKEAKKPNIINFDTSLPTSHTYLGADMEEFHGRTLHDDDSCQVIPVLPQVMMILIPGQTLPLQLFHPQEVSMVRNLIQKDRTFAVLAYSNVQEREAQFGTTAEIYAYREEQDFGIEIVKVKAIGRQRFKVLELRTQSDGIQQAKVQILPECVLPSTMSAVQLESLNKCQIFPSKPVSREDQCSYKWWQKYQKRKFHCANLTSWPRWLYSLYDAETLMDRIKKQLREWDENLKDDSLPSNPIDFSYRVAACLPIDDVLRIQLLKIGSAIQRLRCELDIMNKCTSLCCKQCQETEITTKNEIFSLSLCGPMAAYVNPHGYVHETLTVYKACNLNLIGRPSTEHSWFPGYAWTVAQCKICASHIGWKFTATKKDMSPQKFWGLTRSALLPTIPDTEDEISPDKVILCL
T2 sequence (Q16531 whole entry partner): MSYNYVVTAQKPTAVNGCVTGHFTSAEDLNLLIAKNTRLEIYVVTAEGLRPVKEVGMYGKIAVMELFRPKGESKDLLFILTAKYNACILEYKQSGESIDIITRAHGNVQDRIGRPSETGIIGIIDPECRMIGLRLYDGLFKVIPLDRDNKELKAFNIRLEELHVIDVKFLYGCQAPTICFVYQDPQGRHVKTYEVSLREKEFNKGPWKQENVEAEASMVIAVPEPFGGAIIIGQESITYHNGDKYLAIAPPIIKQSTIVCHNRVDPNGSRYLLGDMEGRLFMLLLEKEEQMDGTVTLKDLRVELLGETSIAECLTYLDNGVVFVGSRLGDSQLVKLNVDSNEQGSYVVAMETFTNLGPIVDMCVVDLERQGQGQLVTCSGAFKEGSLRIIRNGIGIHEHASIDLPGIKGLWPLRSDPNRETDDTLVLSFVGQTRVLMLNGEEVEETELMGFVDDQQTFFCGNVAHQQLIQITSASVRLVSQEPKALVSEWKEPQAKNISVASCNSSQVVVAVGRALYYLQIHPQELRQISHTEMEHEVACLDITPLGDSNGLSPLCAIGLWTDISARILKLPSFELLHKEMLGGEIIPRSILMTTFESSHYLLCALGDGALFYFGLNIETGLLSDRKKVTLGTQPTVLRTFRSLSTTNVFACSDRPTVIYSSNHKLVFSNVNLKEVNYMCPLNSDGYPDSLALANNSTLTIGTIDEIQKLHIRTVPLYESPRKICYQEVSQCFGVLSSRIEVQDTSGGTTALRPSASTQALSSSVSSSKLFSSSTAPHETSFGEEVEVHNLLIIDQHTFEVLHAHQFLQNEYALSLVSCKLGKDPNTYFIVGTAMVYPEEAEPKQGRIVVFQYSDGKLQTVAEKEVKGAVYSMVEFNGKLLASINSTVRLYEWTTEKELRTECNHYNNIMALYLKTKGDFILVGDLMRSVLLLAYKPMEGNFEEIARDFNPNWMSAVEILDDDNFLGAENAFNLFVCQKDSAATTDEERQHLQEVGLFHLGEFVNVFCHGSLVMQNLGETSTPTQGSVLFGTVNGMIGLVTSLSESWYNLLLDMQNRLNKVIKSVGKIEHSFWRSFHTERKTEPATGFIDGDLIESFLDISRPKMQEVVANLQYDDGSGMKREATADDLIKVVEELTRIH
T4 sequence (P48729 whole entry): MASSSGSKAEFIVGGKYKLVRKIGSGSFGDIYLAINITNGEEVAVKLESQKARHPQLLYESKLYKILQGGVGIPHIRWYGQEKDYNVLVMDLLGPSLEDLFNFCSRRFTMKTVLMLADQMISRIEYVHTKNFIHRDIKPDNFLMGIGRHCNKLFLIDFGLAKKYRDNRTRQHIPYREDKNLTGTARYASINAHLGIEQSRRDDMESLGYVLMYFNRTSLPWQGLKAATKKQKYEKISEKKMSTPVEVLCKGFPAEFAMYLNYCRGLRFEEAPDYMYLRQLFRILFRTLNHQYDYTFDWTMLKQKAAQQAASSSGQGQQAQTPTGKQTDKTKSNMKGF
T4 sequence (Q96SW2 whole entry): as the sequence (Q96SW2 whole entry) above
T4 sequence (Q16531 whole entry partner): as the sequence (Q16531 whole entry partner) above
T3 sequence (Q96SW2 whole entry): as the sequence (Q96SW2 whole entry) above
T1 sequence (P15170 whole entry): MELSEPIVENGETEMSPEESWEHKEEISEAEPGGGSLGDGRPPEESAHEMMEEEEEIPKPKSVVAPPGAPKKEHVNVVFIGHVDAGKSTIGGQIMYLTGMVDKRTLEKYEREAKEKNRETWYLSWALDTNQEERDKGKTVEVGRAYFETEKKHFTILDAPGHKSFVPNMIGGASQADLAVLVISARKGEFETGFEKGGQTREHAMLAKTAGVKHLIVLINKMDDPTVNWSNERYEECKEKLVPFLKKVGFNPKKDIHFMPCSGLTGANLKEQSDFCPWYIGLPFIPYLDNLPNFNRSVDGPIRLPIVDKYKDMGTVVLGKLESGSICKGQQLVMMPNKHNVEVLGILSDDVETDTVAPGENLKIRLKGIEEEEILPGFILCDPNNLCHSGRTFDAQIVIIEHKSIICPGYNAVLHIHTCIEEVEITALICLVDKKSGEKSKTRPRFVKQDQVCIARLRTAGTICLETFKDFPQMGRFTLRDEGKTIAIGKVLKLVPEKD
T1 sequence (Q96SW2 whole entry): as the sequence (Q96SW2 whole entry) above
T1 sequence (Q16531 whole entry partner): as the sequence (Q16531 whole entry partner) above

Compound	substrate protein remaining % (GSPT1)	substrate protein remaining % (Wee1)	IC50 [1] [nM]	substrate protein remaining % (CK1α)
O=C1CCC(N2Cc3cc(SC4CN(C(c5ccccc5)c5ccccc5)C4)ccc3C2=O)C(=O)N1 (stereo not shown) [GT-06138, 3-(5-((1-benzhydrylazetidin-3-yl)thio)-1-oxoisoindolin-2-yl)piperidine-2,6-dione]	A (0%≤ substrate protein remaining % ≤80%)	A (0%≤ substrate protein remaining % ≤80%)	500 to 1000	–
O=C1CCC(N2Cc3cc(OC4CN(CC5=C(c6ccc(Cl)cc6)CCC(F)(F)C5)C4)ccc3C2=O)C(=O)N1 (stereo not shown) [GT-06563, 3-(5-((1-((4′-chloro-4,4-difluoro-3,4,5,6-tetrahydro-[1,1′-biphenyl]-2-yl)methyl)azetidin-3-yl)oxy)-1-oxoisoindolin-2-yl)piperidine-2,6-dione]	–	A (0%≤ substrate protein remaining % ≤80%)	500 to 1000	–
CC1(C)CCC(C(=O)N2C[C@H]3CC(Oc4ccc5c(c4)CN(C4CCC(=O)NC4=O)C5=O)C[C@H]3C2)=C(c2ccc(Cl)cc2)C1 (stereo partly drawn) [GT-07019, 3-(5-(((3aR,6aS)-2-(4′-chloro-5,5-dimethyl-3,4,5,6-tetrahydro-[1,1′-biphenyl]-2-carbonyl)octahydro-cyclopenta[c]pyrrol-5-yl)oxy)-1-oxoisoindolin-2-yl)piperidine-2,6-dione]	–	A (0%≤ substrate protein remaining % ≤80%)	< 500	–
CC1(C)CCC(C(=O)N2CCC3(CC2)CC(Oc2ccc4c(c2)CN(C2CCC(=O)NC2=O)C4=O)C3)=C(c2ccc(Cl)cc2)C1 (stereo not shown) [GT-07020, 3-(5-((7-(4′-chloro-5,5-dimethyl-3,4,5,6-tetrahydro-[1,1′-biphenyl]-2-carbonyl)-7-azaspiro[3.5]nonan-2-yl)oxy)-1-oxoisoindolin-2-yl)piperidine-2,6-dione]	A (0%≤ substrate protein remaining % ≤80%)	A (0%≤ substrate protein remaining % ≤80%)	500 to 1000	–
O=C1CCC(N2Cc3cc(SC4C[C@@H]5CN(C(=O)c6ccccc6-c6ccc(Cl)cc6)C[C@H]5C4)ccc3C2=O)C(=O)N1 (stereo partly drawn) [GT-07023, 3-(5-(((3aS,6aS)-2-(4′-chloro-[1,1′-biphenyl]-2-carbonyl)octahydro-cyclopenta[c]pyrrol-5-yl)thio)-1-oxoisoindolin-2-yl)piperidine-2,6-dione]	–	A (0%≤ substrate protein remaining % ≤80%)	< 500	–
CC1(C)CCC(CN2CCC(Oc3ccc4c(c3)CN(C3CCC(=O)NC3=O)C4=O)CC2)=C(c2ccc(Cl)cc2)C1 (stereo not shown) [GT-07061, 3-(5-((1-((4′-chloro-5,5-dimethyl-3,4,5,6-tetrahydro-[1,1′-biphenyl]-2-yl)methyl)piperidin-4-yl)oxy)-1-oxoisoindolin-2-yl)piperidine-2,6-dione]	–	–	–	A (0%≤ substrate protein remaining % ≤80%)
CC1(C)CCC(CN2CCC(Oc3ccc4c(c3)CN(C3CCC(=O)NC3=O)C4=O)CC2)=C(c2ccc(F)cc2)C1 (stereo not shown) [GT-07062, 3-(5-((1-((4′-fluoro-5,5-dimethyl-3,4,5,6-tetrahydro-[1,1′-biphenyl]-2-yl)methyl)piperidin-4-yl)oxy)-1-oxoisoindolin-2-yl)piperidine-2,6-dione]	–	–	–	A (0%≤ substrate protein remaining % ≤80%)
CC1(C)CCC(CN2CC(Oc3cccc4c3C(=O)N(C3CCC(=O)NC3=O)C4)C2)=C(c2ccc(Cl)cc2)C1 (stereo not shown) [GT-07063]	–	–	–	A (0%≤ substrate protein remaining % ≤80%)
COC1(C)CCC(c2ccc(Cl)cc2)=C(CN2CC(Sc3ccc4c(c3)CN(C3CCC(=O)NC3=O)C4=O)C2)C1 (stereo not shown) [GT-07064, 3-(5-((1-((4′-chloro-4-methoxy-4-methyl-3,4,5,6-tetrahydro-[1,1′-biphenyl]-2-yl)methyl)azetidin-3-yl)thio)-1-oxoisoindolin-2-yl)piperidine-2,6-dione]	–	–	–	A (0%≤ substrate protein remaining % ≤80%)
